Measurements reported in patent US11225642B2, “Method for producing renal progenitor cells” (KYOTO UNIVERSITY, priority 2013, dated 2022).

Legend:
[1] = test system: OSR1-GFP & SIX2-tdTomato reporter human iPS cell line; experiment: SIX2-positive cell induction method 1, SIX2-tdTomato-positive cell rate by flow cytometer; type: cell-based; conditions: for SIX2-positive cell rate: induction method 1 stage 3, Dorsomorphin replaced with 0.5 μM LDN193189 and TGFβ1 with 10 ng/ml TGFβ2 or TGFβ3
Method: The OSR1-GFP & SIX2-tdTomato reporter human iPS cell line obtained by the method in Example 1 was cultured at 37° C. in a 2-5% CO2 atmosphere to become confluent on 10-cm dishes containing a primate ES/iPS cell medium (ReproCELL) supplemented with 5 ng/ml bFGF (Wako) with the use of SNL cells (McMahon, A. P. and Bradley, A. (1990) Cell 62; 1073-1085) (the cells being treated with 15.5 μg/ml mitomycin (Kyowa Hakko Kirin Co., Ltd.) for 2 to 3 hours and seeded at a density of 3×10^5 cells/10-cm dish) as feeder cells. A CTK solution (2.5% Trypsin (Invitrogen), 1 mg/ml Collagenase IV (Invitrogen), 0.1 M CaCl2, 10 mL KnockOut SR (Invitrogen), and 29.5 mL H2O) was added to dissociate the cells. After removal of the feeder cells, the dissociated cells were suspended in a DMEM/F12 medium containing 1 μM CHIR99021 (Stemgent, 04-0004), 100 ng/ml Activin A (R&D Systems, 338-AC), 1% GlutaMAX (100×) (Invitrogen, 35050-061), 2% FBS (Hyclone), and 0.5% PenStrep (Invitrogen, 10565). Then, the cell suspensions were transferred to a low cell binding plate (LOW CELL BIND 6 WELL DISH (Nunc, 145383)) such that each well contained one-third to one-sixth of the cell suspension obtained from the 10-cm dish, followed by suspension culture at 37° C. in a 5% CO2 atmosphere for 2 days.
The cell mass obtained at stage 1 was transferred to a 24-well or 6-well dish coated with Matrigel (BD Matrigel Matrix Growth Factor Reduced (BD Biosciences, 356230) (the dish being coated with 0.2 mg/ml Matrigel in DMEM and treated at 37° C. for 30 minutes or at 4° C. overnight) or a 24-well or 6-well dish coated with Synthemax (Corning Synthemax II-SC Substrate (Corning, 3535XX1)) (the dish being coated with Synthemax diluted 40-fold with sterile water and treated at room temperature for 2 hours). The medium was exchanged with a DMEM/F12 medium containing 1 μM CHIR99021, 100 ng/ml BMP7 (Recombinant human BMP7 (R&D Systems, 3534-BP)), 0.1% 2-mercaptoethanol (1000×) (Invitrogen, 21985), 1% GlutaMAX (100×), 10% KnockOut SR (Invitrogen), 0.1 mM MEM NEAA (Invitrogen, 11140), and 0.5% PenStrep, followed by adhesion culture at 37° C. in a 5% CO2 atmosphere for 3 to 6 days. In the case of culture for 3 days or more, the medium was exchanged every 3 days with a medium having the same conditions.
The medium was removed from the cells obtained at stage 2. The cells were washed with PBS and then the medium was exchanged with a DMEM/F12 medium containing 5 ng/ml TGFβ1 (Peprotech, 100-21C), 0.5 μM Dorsomorphin (AMPK Inhibitor, Compound C (Merck, 171260)), 0.1% 2-mercaptoethanol (1000×), 1% GlutaMAX (100×), 10% KnockOut SR, 0.1 mM MEM NEAA, and 0.5% PenStrep, followed by suspension culture at 37° C. in a 5% CO2 atmosphere for 15 to 22 days. In this case, the medium was exchanged every 3 days with a medium having the same conditions.
At stage 3 of SIX2-positive cell induction method 1, Dorsomorphin was replaced with 100 ng/ml Noggin (Peprotech), 0.5 μM LDN193189 (Axon MedChem, 1509), or 0.5 μM DMH1 (Tocris, 4126) for differentiation induction in the aforementioned manner.
At stage 3 of SIX2-positive cell induction method 1, TGFβ1 was exchanged with 50 μM IDE1 (Tocris) or 50 μM IDE2 (Tocris) for differentiation induction in the aforementioned manner.
At stage 3 of SIX2-positive cell induction method 1, Dorsomorphin was replaced with 0.5 μM LDN193189, while TGFβ1 with 10 ng/ml TGFβ2 (Peprotech) or 10 ng/ml TGFβ3 (R&D), for differentiation induction in the aforementioned manner. As a result, the SIX2-positive cell rates were 8.6% and 9.3%, respectively (FIGS. 2G and 2H).

[2] = test system: OSR1-GFP & SIX2-tdTomato reporter human iPS cell line (4A6C3-10); experiment: SIX2-positive cell induction method 4, OSR1+SIX2+ cell rate by flow cytometer; type: cell-based
Method: 4A6C3-10 was cultured at 37° C. in a 2% to 5% CO2 atmosphere to become 70% to 80% confluent on 10-cm dishes containing a primate ES medium (ReproCELL) supplemented with 500 U/ml penicillin/streptomycin (Invitrogen) and 5 ng/ml recombinant human basic fibroblast growth factor (bFGF, Wako) with the use of ICR-mouse-embryo (fetus 12.5 days old)-derived mouse embryonic fibroblasts (MEF) or SNL feeder cells (McMahon, A. P. and Bradley, A. (1990) Cell 62; 1073-1085) (these cells being previously treated with 15.5 μg/ml mitomycin (Kyowa Hakko Kirin Co., Ltd.) for 2 to 3 hours and seeded at a density of 2×10^5 cells/6-cm dish) as feeder cells. The 10-cm plates containing the cells were rinsed with PBS and treated with a CTK solution (PBS containing 0.25% Trypsin (Invitrogen), 0.1% Collagenase IV (Invitrogen), 20% KnockOut SR (KSR, Invitrogen), and 1 mM CaCl2) at 37° C. for 4 minutes. The CTK solution was removed by rinsing with PBS. Then, the medium was exchanged with DMEM/F12+Glutamax (Invitrogen) containing 0.1 mM MEM NEAA (Invitrogen), 1000 U/ml penicillin/streptomycin, 0.55 mM 2-mercaptoethanol (Invitrogen), and 20% KSR. Subsequently, the cells were scraped using a cell scraper and seeded on 6-cm plates coated with 0.2% gelatin to remove feeder cells. One hour later, the cells were washed with DMEM/F12+Glutamax [stage-1 medium] containing 500 U/ml penicillin/streptomycin and 2% FBS (HyClone), transferred to ultra-low attachment dishes (Corning 3471) having a stage-1 medium containing 100 ng/ml recombinant human/mouse/rat Activin A (R&D Systems) and 1 μM CHIR99021, and cultured at 37° C. in a 5% CO2 atmosphere for 2 days.
In order to differentiate into the intermediate mesoderm, the cell mass (embryoid body (EB)) obtained at stage 1 was transferred to a 24-well plate coated with Synthemax II (Corning), the medium was exchanged with DMEM/F12+Glutamax containing 0.1 mM MEM NEAA, 500 U/ml penicillin/streptomycin, 0.55 mM 2-mercaptoethanol, 10% KSR, 100 ng/ml BMP7 (recombinant human BMP7, R&D Systems), and 1 μM CHIR99021, and the cells were cultured at 37° C. in a 5% CO2 atmosphere for 3 days.
After stage 2, the medium was exchanged with DMEM/F12+Glutamax containing 0.1 mM MEM NEAA, 500 U/ml penicillin/streptomycin, 0.55 mM 2-mercaptoethanol, 10% KSR, 1 μM TTNPB (Sigma T3757), and 5 ng/ml TGFβ1 (Peprotech), followed by culturing at 37° C. in a 5% CO2 atmosphere for 5 days. The medium was exchanged with a medium having the same conditions two days after the start of culture (i.e., day 8 from the start of stage 1 (day 1)).
After stage 3, the medium was exchanged with DMEM/F12+Glutamax containing 0.1 mM MEM NEAA, 500 U/ml penicillin/streptomycin, 0.55 mM 2-mercaptoethanol, 10% KSR, 5 ng/ml TGFβ1, and 0.5 μM DMH1 (Tocris), followed by culturing at 37° C. in a 5% CO2 atmosphere for 17 days (i.e., culturing for 28 days in total from the start of stage 1 (day 1); FIG. 3A). In this case, the medium was exchanged every 3 days with a medium having the same conditions. […] In addition, the OSR1^+SIX2^+ cell rate reached the maximum level on day 25 of culture and then it was confirmed to be maintained until day 28 of culture (FIG. 3D).
Induction of OSR1^+SIX2^+ cells from the 4A6C3-10 iPS cell line was examined using different combinations of TGFβ signaling activators and BMP inhibitors. Specifically, induction of OSR1^+SIX2^+ cells from 4A6C3-10 was examined under conditions 1) to 10) described below. […]

[3] = induction method 1 stage 3, TGFβ1 exchanged with 50 μM IDE1 or 50 μM IDE2, with Dorsomorphin
[4] = induction method 1 stage 3, Dorsomorphin replaced with 100 ng/ml Noggin, 0.5 μM LDN193189 or 0.5 μM DMH1, with TGFβ1

`O=C(O)CCCCCC(=O)NN=C1CCCC1` [IDE2, 7-(2-cyclopentylidenehydrazinyl)-7-oxoheptanoic acid] showed an SIX2-tdTomato-positive cell rate [1, 3] of 39.4%.

`c1ccc2c(-c3cnn4cc(-c5ccc(N6CCNCC6)cc5)cnc34)ccnc2c1` [LDN193189, 4-(6-(4-(piperazin-1-yl)phenyl)pyrazolo[1,5-a]pyrimidin-3-yl)quinoline] was tested, and the SIX2-tdTomato-positive cell rate [1, 4] was 20.4%.

In the case of `CC(C)Oc1ccc(-c2cnc3c(-c4ccnc5ccccc45)cnn3c2)cc1` [DMH1, 4-[6-[4-(1-Methylethoxy)phenyl]pyrazolo[1,5-a]pyrimidin-3-yl]-quinoline], the SIX2-tdTomato-positive cell rate [1, 4] is reported as 15.4%, the “induction of OSR1+SIX2+ cells” value ([2]; Example 8, comparison of combinations of TGFβ signaling activators and BMP inhibitors at stage 4 (FIG. 4)) is reported as “effective” and the “OSR1-positive and SIX2-positive (OSR1+SIX2+) cell rate” value ([2]; induction method 4, stage 4 medium with 5 ng/ml TGFβ1 and 0.5 μM DMH1, day 28 of culture) is reported as 32.8%.

`NC(=O)c1ccc(-c2nc(-c3ccc4c(c3)OCO4)c(-c3ccccn3)[nH]2)cc1` [SB431542] was tested, and the “differentiation into OSR1+SIX2+ cells” value ([2]; stage 4 medium with 10 μM SB431542 together with 5 ng/ml TGFβ1 and 0.5 μM DMH1 (condition 11)) was “inhibited”.

In the case of `O=C(O)CCCCCC(=O)N/N=C\c1ccccc1C(=O)O` [IDE1, (Z)-2-((2-(6-carboxyhexanoyl)hydrazono)methyl)benzoic acid], the SIX2-tdTomato-positive cell rate [1, 3] is reported as 8.4%.

B1: TGFβ2: TGFβ signaling activator protein (Peprotech) (protein, UniProt P61812 303-414, looked up)
Transforming growth factor …: ALDAAYCFRNVQDNCCLRPLYIDFKRDLGWKWIHEPKGYNANFCAGACPYLWSSDTQHSRVLSLYNTINPEASASPCCVSQDLEPLTILYYIGKTPKIEQLSNMIVKSCKCS
B1 was tested, and the SIX2-positive cell rate [1] was 8.6%.

B2: TGFβ3: TGFβ signaling activator protein (R&D, Peprotech) (protein, UniProt P10600 301-412, looked up)
Transforming growth factor …: ALDTNYCFRNLEENCCVRPLYIDFRQDLGWKWVHEPKGYYANFCSGPCPYLRSADTTHSTVLGLYNTLNPEASASPCCVPQDLEPLTILYYVGRTPKVEQLSNMVVKSCKCS
B2 was tested, and the SIX2-positive cell rate [1] was 9.3%.

B3: Noggin: BMP inhibitor protein (Peprotech) (protein, UniProt Q13253 28-232, looked up)
Noggin: QHYLHIRPAPSDNLPLVDLIEHPDPIFDPKEKDLNETLLRSLLGGHYDPGFMATSPPEDRPGGGGGAAGGAEDLAELDQLLRQRPSGAMPSEIKGLEFSEGLAQGKKQRLSKKLRRKLQMWLWSQTFCPVLYAWNDLGSRFWPRYVKVGSCFSKRSCSVPEGMVCKPSKSVHLTVLRWRCQRRGGQRCGWIPIQYPIISECKCSC
B3 was tested, and the SIX2-tdTomato-positive cell rate [1, 4] was 7.5%.
